According to US10399931B2, “Octahydroanthracene compound, preparation method and application thereof” (SHANDONG XINHUA PHARMACEUTICAL CO., LTD., priority 2016, dated 2019):
Where two headings read alike, the source gives them in different places. Values belong to the compound of their own block, whether it stands above or below them.

What was measured:
APP/PS1 transgenic mice [1] = assay: Nesting experiment; type: in vivo; conditions: at 12 h
Description: Each mouse was separately housed in a cage. On the first day of the test, two pieces of cotton (5 cm×5 cm) were placed in the cage. […]

[2] = test system: Human cutaneous T-cell lymphoma Hut102 cells; assay: MTT assay, proliferation of human cutaneous T-cell lymphoma Hut102 cells; type: cell-based
Experimental: (§1) The survival rate of cells was determined by MTT assay, which is based on the metabolic reduction of 3-(4,5-dimethyl-2thiahiazoyl)-3,5-di-phenyl-tetrazolium bromide (MTT) by viable cells. MTT is a yellow compound, a dye that accepts hydrogen ion, which can act on the respiratory chain in the mitochondria of viable cells. Under the action of succinate dehydrogenase and cytochrome C, the tetrazolium ring was cleaved to form blue Formazan crystals, and the amount of Formazan crystals generated was only proportional to the number of the viable cells. The enzymes disappeared in dead cells, so Formazan crystals could not be dissolved in MTT solution containing 20% sodium dodecyl sulfate (pH 4.7).
(§2) The cells in the logarithmic growth phase were selected and adjusted to an appropriate cell density, seeded in a 96-well plate, 100 μl/well, and cultured in a 37° C., 5% CO2 incubator. The cells were allowed to adhere overnight, then the culture medium was replaced and the drug was added to cultivate for 48 h. A blank control group, a drug administration group and a positive control group were set, with four repeats in each group.
(§3) After 48 h of drug treatment, the cells were incubated with 0.25 mg/ml MTT at 37° C. for 3-4 h, and 100 μl of dimethyl sulfoxide (DMSO) was added to each well after aspirating the culture solution.

[3] = test system: Human leukemia HL60 cells; assay: MTT assay, proliferation of human leukemia HL60 cells; type: cell-based; conditions: for IC50: read-out: IC50 against HL60 cells
Experimental: as §1, §2, §3

APP/PS1 transgenic mice [4] = assay: Morris water maze test (oriented navigation and probe test); type: in vivo; conditions: 100 mg/kg
Experimental: The drugs were administered three days after the adaptive feeding. Peanut oil was used as the solvent. The drug was intragastric administered once a day for 15 days. On the 6th to 9th day after the administration, the new object identification test was performed. On the 10th day, the Y-maze test was performed. On the 11th to 15th day, the Morris water maze test was performed to determine the improvement of learning and memory. The administration of the drugs was continued during the behavioral experiment until the animals were sacrificed (16th day).
The experimental device includes a black circular pool with a diameter of 100 cm and a height of 40 cm, and a white platform (safe platform) having a diameter of about 10 cm. The location of the safe platform could be moved. Morris Water Maze Video Detection and Analysis System was provided by the Institute of Materia Medica, China Academy of Medical Sciences. One day before the experiment, water was injected into the black circular pool (water temperature 22±1° C.), and white pigment was added to mix uniformly. The water surface was usually about 1 cm higher than the top of the safe platform. The pool was divided into four quadrants I, II, III and IV, and the safe platform was usually placed in the middle of the quadrant IV. The experiment was divided into two parts: (1) Oriented navigation: the animal grouping was input into a computer software in advance. The position of the safe platform was kept unchanged during the experiment. During the test, the experimental animal facing the pool wall was placed in the water from different inlets, and the computer simultaneously collected data and recorded the time to find the safe platform (escape latency). Data collection automatically stopped when the animal stayed on the safe platform for 10 s. The data acquisition time of the mouse was 60 s. If the animal could not find the safe platform within the specified time, the escape latency was recorded as 60 s. At the same time, the operator induced the animal to reach the safe platform and stay for 10 s. The animal was trained twice a day for 4 consecutive days. (2) Probe test: after the oriented navigation test is completed, the safe platform is removed and the animal was placed in the pool free to explore for 60 s. The camera system automatically recorded the time and distance of the experimental animal swimming in the quadrant of the safe platform within the specified time and the number of times passing through the location of the safe platform.

RXR = assay: Verification of RXR target, dual-luciferase reporter in transfected 293T cells; type: cell-based, Human; conditions: 20 nM, 48 h; for Relative activity (RXR): relative to CON = 1; for Flu (firefly luciferase signal) / Flu/Rlu / Rlu (Renilla luciferase signal): transfected 293T cells
HDAC = assay: Verification of HDAC target, HDAC fluorometric activity assay on A549 cell lysate; conditions: 20 μM, Mean
Experimental: All the compounds were prepared into mother liquors with the same concentration (100 mmol/L) and stored at a temperature of −20° C. […] The DMSO sample was tested at a final concentration of 1%.
A substrate containing an acetylated lysine chain was added to the sample (cell lysate buffer), and the active HDAC in the sample deacetylated the lysine chain on the substrate to activate the substrate. Further, a lysine luminescent reagent is added to generate fluorescence, and the signal was recorded by a microplate reader to indicate the activity of HDAC in the sample.
2) Detection Method • a) Dissolving 50 μg untreated A549 cell lysate in 85 μL (final volume) ddH2O. For the positive blank group, adding 2 μL HeLA nuclear extract first, following by adding 83 μL ddH2O. In the negative blank group, by adding 2 μL Trichostatin A and 83 μL ddH2O. • b) Adding 10 μL 10× buffer to each well. • c) Adding 5 μL HDAC fluorogenic substrate to each well, and adding the drug to make the final concentration reach the set concentration, mixing well, and incubating at 37° C. for 30 min. • d) Adding 10 μL lysine developer, mixing well, then stopping the reaction, incubating for 30 min at 37° C. • e) Detecting the fluorescence value by the microplate reader (condition: emission wavelength/excitation wavelength is 350-380/440-460 nm).

[5] = Homo sapiens, HL-60, read-out: Inhibitive rate (%) against HL60 cells
[6] = HuT-102, 10 μM, Mean ± SE, read-out: Inhibitive rate (%) against Hut102 cells
[7] = Homo sapiens, HL-60, 0.01 μmol/L, Mean ± SE, read-out: Inhibitive rate (%) against HL60 cells
[8] = Homo sapiens, HL-60, 0.1 μmol/L, Mean ± SE, read-out: Inhibitive rate (%) against HL60 cells
[9] = Homo sapiens, HL-60, 1 μmol/L, Mean ± SE, read-out: Inhibitive rate (%) against HL60 cells
[10] = Homo sapiens, HL-60, 10 μmol/L (rescreening), Mean ± SE, read-out: Inhibitive rate (%) against HL60 cells
[11] = Homo sapiens, HL-60, 48 h, 10 μM, 48 h, Mean ± SE, read-out: Inhibitive rate (%) against HL60 cells
[12] = Homo sapiens, HL-60, 48 h, MTT, 48 h

Compound: C=C(c1ccc(C(=O)O)cc1)c1cc2c(cc1C)C(C)(C)CCC2(C)C [BEXA, bexarotene, reference compound]
Nesting ability vs model group (APP/PS1 transgenic mice [1]; 100 mg/kg): significantly increased
inhibition at 10 µM ([2]; HuT-102, read-out: Inhibitive rate (%) against Hut102 cells): 6.41 ± 4.1%
IC50 ([3]; Homo sapiens, HL-60, 48 h): 6.31 ± 0.7 µM
inhibition at 10 µM ([3]; Homo sapiens, HL-60, 48 h, read-out: Inhibitive rate (%) against HL60 cells): 4 ± 1.14%
inhibition at 0.01 µM [3, 5]: 16.5 ± 1.66%
inhibition at 0.1 µM [3, 5]: 15.1 ± 1.44%
inhibition at 1 µM [3, 5]: 65.5 ± 1.72%
inhibition at 10 µM [3, 5]: 80.88 ± 0.63%
Escape latency vs model group (APP/PS1 transgenic mice [4]; third and fourth days of training): significantly reduced
Number of times traversing the safe platform vs model group (APP/PS1 transgenic mice [4]; probe test): significantly increased
Percentage of the swimming distance in the target quadrant vs model group (APP/PS1 transgenic mice [4]; probe test): significantly increased
Swimming time in the target quadrant vs model group (APP/PS1 transgenic mice [4]; probe test): significantly increased

Compound: CC1(C)CCC(C)(C)c2c1cc1c(c2NC(=O)c2ccc(C(=O)NCCN)cc2)C(C)(C)CCC1(C)C [OAA-6, N-(2-amino) ethyl-4-[(1,1,4,4,5,5,8,8-octamethyl-1,2,3,4,5,6,7,8-octahydro-9-anthryl)carbamoyl] benzamide]
Relative activity (RXR) (RXR): 1.47
Flu (firefly luciferase signal) (RXR): 452598
Flu/Rlu (RXR): 2.59
Rlu (Renilla luciferase signal) (RXR): 174827
inhibition at 10 µM [2, 6]: 23.9 ± 1.03%
Inhibitive rate of HDAC activity of A549 cells (HDAC): −11.07%
inhibition at 0.01 µM [3, 7]: 1.2 ± 0.27%
inhibition at 0.1 µM [3, 8]: 13.4 ± 1.5%
inhibition at 1 µM [3, 9]: 76.73 ± 0.07%
inhibition at 10 µM [3, 10]: 79.74 ± 0.46%
inhibition at 10 µM [3, 11]: > 50%
IC50 [3, 12]: < 10 µM
IC50 ([3]; MTT, 48 h): 5.63 ± 1.14 µM

Compound: CC1(C)CCC(C)(C)c2c1cc1c(c2NC(=O)c2ccc(NC(=O)NCCCC(=O)O)cc2)C(C)(C)CCC1(C)C [OAB-7, 1-(4-carboxypropyl)-3-{4-[(1,1,4,4,5,5,8,8-octamethyl-1,2,3,4,5,6,7,8-octahydro-9-anthryl)carbamoyl]phenyl} urea]
inhibition at 10 µM [2, 6]: 5.6 ± 3%
inhibition at 10 µM [3, 11]: 1.76 ± 1.41%

Compound: COC(=O)Nc1ccc(C(=O)Nc2c3c(cc4c2C(C)(C)CCC4(C)C)C(C)(C)CCC3(C)C)cc1 [OAB-8, 4-[(1,1,4,4,5,5,8,8-octamethyl-1,2,3,4,5,6,7,8-octahydro-9-anthryl)carbamoyl] methyl Phenylcarbamate]
inhibition at 10 µM [2, 6]: -1.05 ± 3.08%
inhibition at 10 µM [3, 11]: 7.24 ± 4.74%

Compound: CC1(C)CCC(C)(C)c2c1cc1c(c2NC(=O)c2ccc(NC(=O)N3CCC(C(=O)O)CC3)cc2)C(C)(C)CCC1(C)C [OAB-9, N-{4-[(1,1,4,4,5,5,8,8-octamethyl-1,2,3,4,5,6,7,8-octahydro-9-anthryl)carbamoyl]phenylcarbamoyl}-4-piperidinyl Formic Acid]
inhibition at 10 µM [2, 6]: -0.3 ± 1.13%
inhibition at 10 µM [3, 11]: 8.03 ± 1.07%

Compound: CC1(C)CCC(C)(C)c2c1cc1c(c2NC(=O)c2ccc(NC(=O)Nc3ccccc3O)cc2)C(C)(C)CCC1(C)C [OAB-10, 1-(2-hydroxyphenyl)-3-{4-[(1,1,4,4,5,5,8,8-octamethyl-1,2,3,4,5,6,7,8-octahydro-9-anthryl)carbamoyl]phenyl} urea]
inhibition at 10 µM [2, 6]: 17.1 ± 0.93%
inhibition at 10 µM [3, 11]: 7.21 ± 0.96%

Compound: CCN(CC)CCNC(=O)Nc1ccc(C(=O)Nc2c3c(cc4c2C(C)(C)CCC4(C)C)C(C)(C)CCC3(C)C)cc1 [OAB-12, 1-[2-(N,N-diethylamino)]ethyl-3-{4-[(1,1,4,4,5,5,8,8-octamethyl-1,2,3,4,5,6,7,8-octahydro-9-anthryl)carbamoyl]phenyl} urea]
Relative activity (RXR) (RXR): 0.85
Flu (firefly luciferase signal) (RXR): 4013
Flu/Rlu (RXR): 1.49
Rlu (Renilla luciferase signal) (RXR): 2686
inhibition at 10 µM [2, 6]: 43.7 ± 3.98%
Inhibitive rate of HDAC activity of A549 cells (HDAC): 4.17%
inhibition at 0.01 µM [3, 7]: 8.96 ± 1.45%
inhibition at 0.1 µM [3, 8]: 11.8 ± 1.33%
inhibition at 1 µM [3, 9]: 73 ± 1.31%
inhibition at 10 µM [3, 10]: 78.94 ± 0.42%

Compound: CN(C)CCNC(=O)Nc1ccc(C(=O)Nc2c3c(cc4c2C(C)(C)CCC4(C)C)C(C)(C)CCC3(C)C)cc1 [OAB-13, 1-[2-(N,N-dimethylamino)]ethyl-3-{4-[(1,1,4,4,5,5,8,8-octamethyl-1,2,3,4,5,6,7,8-octahydro-9-anthryl)carbamoyl]phenyl} urea]
Relative activity (RXR) (RXR): 1.11
Flu (firefly luciferase signal) (RXR): 76228
Flu/Rlu (RXR): 1.95
Rlu (Renilla luciferase signal) (RXR): 39025
inhibition at 10 µM [2, 6]: 39.8 ± 0.81%
Inhibitive rate of HDAC activity of A549 cells (HDAC): 3.19%
inhibition at 0.01 µM [3, 7]: 12.6 ± 0.7%
inhibition at 0.1 µM [3, 8]: 11.4 ± 0.88%
inhibition at 1 µM [3, 9]: 53.3 ± 1.22%
inhibition at 10 µM [3, 10]: 79.93 ± 0.16%
IC50 [3, 12]: < 10 µM
IC50 ([3]; MTT, 48 h): 6.65 ± 2.93 µM

Compound: CC1(C)CCC(C)(C)c2c1cc1c(c2NC(=O)c2ccc(NC(=O)NO)cc2)C(C)(C)CCC1(C)C [OAB-15, 1-hydroxy-3-{4-[(1,1,4,4,5,5,8,8-octamethyl-1,2,3,4,5,6,7,8-octahydro-9-anthryl)carbamoyl]phenyl} urea]
inhibition at 10 µM [2, 6]: 2.3 ± 3.26%
inhibition at 10 µM [3, 11]: 0.59 ± 1.44%

Compound: CC1(C)CCC(C)(C)c2c1cc1c(c2NC(=O)c2ccc(NC(=O)ON)cc2)C(C)(C)CCC1(C)C [OAB-16, 4-[(1,1,4,4,5,5,8,8-octamethyl-1,2,3,4,5,6,7,8-octahydro-9-anthryl)carbamoyl] phenyl Carbamic Acid-O-Amino Ester]
inhibition at 10 µM [2, 6]: 8.38 ± 2.31%
inhibition at 10 µM [3, 11]: 1.67 ± 3.24%

melting point: 284 to 287 °C
Compound: CC1(C)CCC(C)(C)c2c1cc1c(c2NC(=O)c2ccc(NC(=O)NCCO)cc2)C(C)(C)CCC1(C)C [OAB-17, 1-(2-hydroxy) ethyl-3-{4-[(1,1,4,4,5,5,8,8-octamethyl-1,2,3,4,5,6,7,8-octahydro-9-anthryl)carbamoyl]phenyl} urea]
inhibition at 10 µM [2, 6]: 9.22 ± 1.29%
inhibition at 10 µM [3, 11]: 33.6 ± 0.7%

Compound: CC1(C)CCC(C)(C)c2c1cc1c(c2NC(=O)c2ccc(NC(=O)NCCCO)cc2)C(C)(C)CCC1(C)C [OAB-18, 1-(3-hydroxy) propyl-3-{4-[(1,1,4,4,5,5,8,8-octamethyl-1,2,3,4,5,6,7,8-octahydro-9-anthryl)carbamoyl]phenyl} urea]
inhibition at 10 µM [2, 6]: 4.32 ± 1.29%
inhibition at 10 µM [3, 11]: 2.47 ± 2.64%

Compound: COc1cc2c(cc1OC)C(=O)C(CC1CCN(Cc3ccccc3)CC1)C2 (centres unmarked) [donepezil, reference compound]
Nesting ability vs model group (APP/PS1 transgenic mice [1]): significantly increased
